Starred links: 1 amine or outer side, 2 acyl side, 3 side chain; linkers in the order of their positions; H or OH if unused. Positions of bridges follow the written chain, without caps; N, C: chain ends. Non-standard residues stand in square brackets, D forms with d. Residues, ends and D or L forms follow the SMILES beside them. Chains are numbered I, II in the order given. Actinocin(9to1) = Cc1c2oc3c(C)ccc(C(=O)[*:1])c3nc-2c(C(=O)[*:2])c(N)c1=O; NMeV = CN[C@H](C(=O)O)C(C)C; Sar = CNCC(=O)O
How the values were obtained:
[1] = system: AP1-responsive firefly luciferase construct in MDA-MB231 cells; experiment: AP-1 gene reporter assay; type: cell-based, human; details: MDA-MB231, pre-incubation with inhibitor
Procedure: (§1) Prior to transfection, cells were plated in 96-well plates to 80-90% confluence (100 μL antibiotic free-medium) after 24 h. When used, siRNA were incubated by reverse transfection during cells seeding. […] A mixture of non-inducible firefly luciferase construct and constitutively expressing Renilla luciferase construct (40:1) were used as negative controls. Approximately 24 h post-transfection, the medium was changed and the cells were treated for 12 h with alkylating agents (with/out 6 h pre-treatments). At the end of this period, medium was changed to drug-free fresh medium (to minimize the effect of alkylating toxicity on promoters activity) and cells were kept for an additional 12 h.

[2] = system: MDA-MB231 xenograft implants; experiment: MDA-MB231 xenograft study; type: in vivo, mouse
Source text: The study was approved by the University of Texas Health Science Center at San Antonio Institutional Animal Care and Use Committee (IACUC) policy as outlined in protocol number 11024. The facility is operated in compliance with the Public Law 89-544 (Animal Welfare Act) and its amendments, Public Health Services Policy on Humane Care and Use of Laboratory Animals (PHS Policy) using the Guide for the Care and Use of Laboratory Animals (Guide) as the basis of operation. Selection of cyclophosphamide and sorafenib doses was based on previously published reports (Sun et al., 2010, J Int Med Res 38, 967-76; Wilhelm et al., 2004 Cancer Res 64, 7099-109). MDA-MB-231 cells were harvested by trypsinization, washed and re-suspended in serum-free medium. Thereafter, cells were mixed with matrigel (1:1), and approximately 5×10^6 cells were subcutaneously injected in the right flank of each mouse. When the average tumor volume reached about 100 mm^3, mice were randomized into groups of 8 animals each, and the following treatment protocol was implemented: Group 1 (control): 100 μL of saline (i.p.); Group 2: sorafenib (1 mg/kg; i.p.) for 9 days; Group 3: cyclophosphamide 0.1 g/kg on days 2, 4, 6 and 8; Group 4: Sorafenib+cyclophosphamide (combination of same above described regimens). All animals were sacrificed 5 days after the end of treatments (15th day of the treatment protocol). Body weight of mice was recorded weekly, and tumor size was measured thrice a week in two dimensions using a digital caliper. The tumor volume was calculated by the formula 0.5236 L1(L2)^2, where L1 is the long axis, and L2 is the short axis of the tumor. At the termination of the study, mice were euthanized; tumors were excised and a part was fixed in 10% phosphate-buffered formalin for H&E, Masson's staining and immunohistochemistry (IHC) analyses.

[3] = system: Intracellular ROS production; experiment: Real-time ROS production (DCF assay); type: cell-based; details: for ROS production, agent alone: BSO 2.5 mM, CDDP 75 μM, TMZ 1.5 mM, 4HC 75 μM, 12 h
Procedure: Intracellular ROS production was detected using DCFH-DA probe (Sigma) (Zanotto-Filho et al., 2010, Cancer Lett 288, 192-203). This reagent enters the cells and reacts predominantly with highly oxidizing species of ROS, such as hydroxyl radicals, hydroperoxides, and peroxynitrite, thus producing the fluorophore DCF. Briefly, cells were seeded in black-edge clear bottom 96-well plates. After reaching 70% confluence, medium was changed and cells were incubated with 20 μM DCFH-DA dissolved in medium containing 0.5% FBS. After 1 h pre-incubation to allow DCFH-DA uptake, treatments were added to its respective final concentrations and DCF fluorescence was monitored at 0.5, 1, 3, 8, 12, 16 and 24 h in a fluorescence reader (Ex/Em=485/532 nm). Hydrogen peroxide was used as a positive control and N-acetylcysteine (NAC), GSH-ethyl-ester (GSH-E) and Trolox were used as antioxidant standards. As a control, at the end of 24 h, cell viability was assessed and compared to wells in the absence of DCFH-DA.

[4] = system: IL8, MMP1, MMP3 and PGE2; experiment: ELISA of inflammatory mediators in culture medium; type: cell-based, human; details: for production of IL-8, MMP-1 and MMP-3: MDA-MB231 culture medium; for prostaglandin E2 (PGE2) in culture medium and COX-2 protein in lysates: human cancer cells, 12 h
Procedure: (§2) Quantification of MMP1 and MMP3 content in culture medium was assessed using RayBio-MMP3 and RayBio-MMP1 Elisa Kit (RayBiotech, Inc); IL8 was analyzed by Human IL-8 Elisa kit (Pierce Biotechnology). The levels of prostaglandin E2 (PGE2) were determined using the Prostaglandin E2 EIA Kit Monoclonal (Cayman Chemical Company). Culture media were diluted to fit within the standard curves. For conditioned media (CM) preparation for invasion and in vitro angiogenesis experiments, 12-well plated cells were treated with MMS (or MMS plus inhibitors) for 8 h in the presence of 10% FBS, twice washed with HBSS, and incubated with 700 μL drug/serum-free fresh medium for additional 12 h. Thereafter, the conditioned fresh medium was collected and directly used for migration and invasion experiments in order to reduce freezing associated loss of activity.

[5] = system: NRF2, GCLC, ER stress markers; experiment: Western blot of NRF2, GCLC and ER stress markers; type: cell-based; details: for NRF2 and GCLC protein levels: MEFs, MDA-MB231, MCF-7, 8-12 h; for immunocontent of ER stress markers: cancer cells, 24 h; for effect on MMS-induced NRF2 activation: CHX 1 μg/mL, Actinomycin D 5 μg/mL, NAC 7.5 mM
Procedure: Western blot. Protein lysates were prepared using RIPA buffer containing 5% sodium deoxycholate, 0.1% SDS, 0.1% Igepal in PBS with a cocktail of protease and phosphatase inhibitors (1 mM PMSF, 1 mM sodium orthovanadate, 1 mM NaF, and 30 μL/mL aprotinin (Sigma-Aldrich, USA)) and clarified by centrifugation. Protein concentration was determined using Bradford Protein Assay Reagent (Biorad, Hercules, Calif.). Equal amounts of protein were resolved using 8-12% SDS polyacrylamide gel, transferred onto nitrocellulose membranes (Hybond-ECL, GE Healthcare Lifesciences, Piscataway, N.J.) and detected using Lumiglo system (Cell Signaling Technology, Calif.) and x-ray films. Primary antibodies included COX-2 (#4842), NRF2 (D1C9), p-JNK1/2 (Thr183/Tyr185, #4671), p-p38 (Thr180/Tyr182, #9216), p-ERK1/2 (Thr202/Tyr204, #9101), BiP/GRP78 (C50B12), IRE1a (14C10), CHOP (L63F7) and PERK (D11A8) from Cell Signaling Technology; p-IRE1a (Ser724; NB100-2323) from Novus Biologicals; GCLC (Ab41463), beta-actin (ab8227) and ATF6 (Ab37149) from Abcam; p-PERK (Thr 981, sc-32577) and ATF3 (C19) were purchased from Santa Cruz. All primary antibodies were used at 1:1000 dilutions and secondary antibodies were 1:3000 in TBS-T with 5% BSA.

[6] = system: Kc167 cells, MEFs, and MDA-MB231 breast cancer cells; experiment: Cell viability (CellTiter-Glo); type: cell-based, D. melanogaster, mouse, human; details: pre-incubation, then MMS; all cell types tested; 48 h
Procedure: The D. melanogaster embryonic cell line Kc167 was grown in Schneider medium (Invitrogen, Carlsbad, Calif.) supplemented with 10% heat-inactivated (56° C./30 min) fetal bovine serum (FBS), penicillin and streptomycin at 22° C. in a humidified incubator. Primary MEFs were obtained by harvesting 14.5-day C57BL/6J embryos as previously described (Ravi et al., 2009, PLoS Genet 5, e1000527). Briefly, fetal liver and head were removed and the remainder of the embryo was mechanically disaggregated in plating medium. A suspension of single-cells was plated in DMEM (plus 10% FBS, 100 U/mL penicillin and 100 μg/mL streptomycin). MEFs were grown for two passages before freezing aliquots. Aliquots were taken and expanded as needed for each experiment. MDA-MB231, SkBr3 and MCF-7 breast cancer cells lines were obtained from ATCC and grown in DMEM supplemented with 10% inactivated FBS plus antibiotics in a 37° C. humidified incubator at […] atmosphere. Cells were kept and treated in the exponential phase of growing (60-70% confluence). […] DMSO concentrations were kept to a maximum of 0.1% for all experiments. Cell viability was assessed using CellTiter-Glo Luminescent Viability assay (Promega) in 384 or 96-well plates white-border clear-bottom plated cells. For caspase-3/7 activity, Caspase-Glo 3/7 Assay kits were used (Promega). For caspase assays, the cells were seeded in 96-well plates and assayed directly after treatments. Caspase-3/7 inhibitor (Z-DEVD-fmk) was used to ensure assay specificity. LDH release into culture medium was quantified by Cytotox-96 Non-Radioactive assay kit in agreement with instructions (Promega).

[7] = system: NFκB-responsive firefly luciferase construct in MDA-MB231 cells; experiment: NFκB gene reporter assay; type: cell-based, human; details: MDA-MB231, pre-incubation with inhibitor
Procedure: as §1

[8] = system: human endothelial cells; experiment: In vitro angiogenesis (Angiophase kit, CD31); type: cell-based; details: direct incubation
Procedure: as §2
The Angiophase kit (MBL Inc.) was used to assess the angiogenic potential of conditioned media (CM) from breast cancer cells or the direct effect of pharmaceutical inhibitors (free-drug system) on vessel-like structures formation in vitro. With this kit, human endothelial cells are co-cultured in a specially designed medium to form threadlike tubule structures. These gradually join up to form a network of anastomosing tubules, which resemble the capillary bed found in the CAM assay. Kit-provided cryopreserved co-culture of human endothelial cells were plated and kept for 96 h (proliferative phase) without treatments. Afterwards, the cells were maintained in the presence of conditioned medium from alkylating agent treated cells or control medium for a total of 14 days (angiogenic/vasculogenic phase). Medium was changed each 2 days. At the end of treatments, the cells were fixed and immune-stained for CD31 (PECAM-1), following by incubation with secondary antibody conjugate. ELISA was developed using the soluble substrate p-nitrophenyl-phosphate (p-NPP) whose product was colorimetrically read at 405 nm. After ELISA assays, the wells were washed with dH2O and tubule staining was performed by incubating CD31-stained tubules with the substrate BCIP/NBT, which form insoluble precipitates. Tubules were counted and photographed for qualitative monitoring.

For `O=C1c2ccccc2-c2n[nH]c3cccc1c23` [SP600129], the “effect on MMS-induced activation of AP-1 reporter” value [1] was “blocked”.

`O=P1(N(CCCl)CCCl)NCCCO1` (centres unmarked) [cyclophosphamide] was tested, and the “collagen deposition (wound healing phenotype)” value ([2]; cyclophosphamide alone) was “spreading areas of collagen deposition”, the “tumor microvessels (histology, CD31)” value ([2]; cyclophosphamide alone vs untreated) was “increased number of niches of microvessels” and the “tumor growth, single agent” value ([2]; sorafenib 1 mg/kg i.p. 9 days, cyclophosphamide 0.1 g/kg days 2, 4, 6, 8) was “reduced tumor size”.

`[NH2][Pt]([NH2])([Cl])[Cl]` [CDDP, cisplatin] was tested, and the “ROS production, agent alone” value [3] was “increased ROS”, the “production of IL-8, MMP-1 and MMP-3” value [4] was “increased the production of these molecules” and the “prostaglandin E2 (PGE2) in culture medium and COX-2 protein in lysates” value [4] was “increased levels of prostaglandin E2 (PGE2)”. For the same molecule, the “NRF2 and GCLC protein levels” value [5] was “induced NRF2 and GCLC protein” and the “immunocontent of ER stress markers” value [5] was “increased the immunocontent of ER stress markers”.

In the case of `Cc1c(C)c2c(c(C)c1O)CCC(C)(C(=O)O)O2` (centres unmarked) [Trolox], the “effect on ROS levels” value ([3]; Trolox 200 μM, NAC 7.5 mM, GSH-E 10 mM) was “reduced ROS below levels of the control” and the “effect on MMS toxicity” value [6] was “had no effect”.

With `Cc1c2oc3c(C)ccc(C(=O)N[C@@H]4C(=O)N[C@H](C(C)C)C(=O)N5CCC[C@H]5C(=O)N(C)CC(=O)N(C)[C@@H](C(C)C)C(=O)O[C@@H]4C)c3nc-2c(C(=O)N[C@@H]2C(=O)N[C@H](C(C)C)C(=O)N3CCC[C@H]3C(=O)N(C)CC(=O)N(C)[C@@H](C(C)C)C(=O)O[C@@H]2C)c(N)c1=O` [actinomycin D] (I: T[dV]P[Sar][NMeV] / II: T[dV]P[Sar][NMeV]; ester I:1-I:C, II:1-II:C; linker I:N-II:N via Actinocin(9to1)) the “effect on MMS-induced NRF2 activation” value [5] was “blocked NRF2 activation”.

`Cc1ccc(S(=O)(=O)/C=C/C#N)cc1` [BAY117082] was tested, and the “effect on MMS-induced activation of NFκB reporter” value [7] was “blocked”.

For `C[S+]([O-])c1ccc(-c2nc(-c3ccc(F)cc3)c(-c3ccncc3)[nH]2)cc1` (centres unmarked) [SB203508], the “effect on MMS-induced activation of NFκB reporter” value [7] was “only blocked the NFκB reporter” and the “effect on MMS-induced activation of AP-1 reporter” value [1] was “only blocked the NFκB reporter”.

For `CCCCC[C@H](O)/C=C/[C@H]1[C@H](O)CC(=O)[C@@H]1C/C=C\CCCC(=O)O` [PGE2, prostaglandin E2], the “vessel-like structure formation, purified factor” value [8] was “angiogenic”.

For VEGF, the “vessel-like structure formation, purified factor” value [8] was “angiogenic”.

In the case of `O=P1(N(CCCl)CCCl)NC(OO)CCO1` (centres unmarked) [4-HC, 4-hydroperoxycyclophosphamide], the “ROS production, agent alone” value [3] was “increased ROS”, the “production of IL-8, MMP-1 and MMP-3” value [4] was “increased the production of these molecules” and the “prostaglandin E2 (PGE2) in culture medium and COX-2 protein in lysates” value [4] was “increased levels of prostaglandin E2 (PGE2)”. The “NRF2 and GCLC protein levels” value [5] was “induced NRF2 and GCLC protein” and the “immunocontent of ER stress markers” value [5] was “increased the immunocontent of ER stress markers”.

For `C[C@@H]1C[C@@H]([C@H](O)CC2CC(=O)NC(=O)C2)C(=O)[C@@H](C)C1` [cycloheximide], the “effect on MMS-induced NRF2 activation” value [5] was “blocked NRF2 activation”.
